# “And” between values parts separate entries of the source, which are not always exact repeats. Identical values can stand only once.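 A five-concentration, 48-hour dose response in 96-well plates underlies each endpoint, interpolated linearly between surrounding concentrations. Abbreviation: GI50, concentration required for 50% inhibition of growth. TGI: total growth inhibition.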
# Experiments:
# Experiment in all cases: NCI anticancer screen, dose series, 48 h
# A549 NSCLC = system: A549 NSCLC
# COLO 205 colon = system: COLO 205 colon
# HCT-116 colon = system: HCT-116 colon
# K-562 leukemia = system: K-562 leukemia
# MALME-3M melanoma = system: MALME-3M melanoma
# MDA-MB-435 = system: MDA-MB-435
# MOLT-4 leukemia = system: MOLT-4 leukemia
# SF-268 CNS = system: SF-268 CNS
# SK-OV-3 ovarian = system: SK-OV-3 ovarian
# UACC-257 melanoma = system: UACC-257 melanoma
SMILES,TGI (A549 NSCLC) [µM],TGI (COLO 205 colon) [µM],TGI (HCT-116 colon) [µM],TGI (K-562 leukemia) [µM],TGI (MALME-3M melanoma),TGI (MDA-MB-435) [µM],TGI (MOLT-4 leukemia) [µM],TGI (SF-268 CNS) [µM],TGI (SK-OV-3 ovarian) [µM],TGI (UACC-257 melanoma) [µM],GI50 (A549 NSCLC),GI50 (COLO 205 colon),GI50 (HCT-116 colon),GI50 (K-562 leukemia),GI50 (MALME-3M melanoma),GI50 (MDA-MB-435),GI50 (MOLT-4 leukemia),GI50 (SF-268 CNS),GI50 (SK-OV-3 ovarian) [µM],GI50 (UACC-257 melanoma)
[N-]=[N+]=CC(=O)COC(=O)c1ccccc1,> 100,> 100,> 100,> 100,> 100 µM,> 100,> 100,> 100,> 100,> 100,–,–,–,–,–,–,–,–,–,–
CCCCNC(=O)Oc1ccc(/C(=C(/CC)Cc2ccccc2)c2ccc(OCCN3CCCCCC3)cc2)cc1,> 100,39.7,29,46.9,35.3 µM,34.3,72.7,> 100,> 100,40.2,32.4 µM,20.6 µM,15.6 µM,16.7 µM,18.2 µM,17.2 µM,21.8 µM,59.8 µM,> 100,19.8 µM
CCCCCCCCCCCCCCCCCCNC(=O)OCC(CNS(=O)(=O)CCC[n+]1cccc2ccccc21)COC (stereo not given),25.9,–,5.78,> 100,18.7 µM,4.94,> 100,> 20.4,> 24.5,8.24,–,–,–,–,–,–,–,–,–,–
CSc1nsc(S/C=C\C(=O)c2ccc(C)cc2)n1,> 90.5,> 63.7,25.7,> 100,38.6 µM,45.6,> 51.5,> 58.5,> 100,49.2,35.1 µM,25.5 µM,13 µM,6.37 µM,19 µM,19.2 µM,1.61 µM,21.5 µM,60.7,22.6 µM
CC[C@]1(O)C[C@@H]2CN(CCc3c([nH]c4ccccc34)[C@@](C(=O)OC)(c3cc4c(cc3OC)N(C)[C@H]3[C@@](O)(C(N)=O)[C@H](O)[C@]5(CC)[C@@H]6C[C@@H]6CN6CC[C@]43[C@@H]65)C2)C1,> 33.3,0.00878,–,> 33.3,32.1 µM,< 0.00333,> 33.3,> 33.3,> 33.3,> 33.3,0.0128 µM,< 0.00333 µM,< 0.00333 µM,< 0.00333 µM,4.9 µM,< 0.00333 µM,< 0.00333 µM,0.00352 µM,< 0.00333,> 33.3 µM
O=C(Nc1ccc(Br)cc1)Nc1nn(C(=O)Nc2ccc(Br)cc2)c2ccccc12,> 100,> 100,> 100,> 35.6,> 85.3 µM,> 100,–,> 63.9,54,> 100,51.5 µM,> 100 µM,16.9 µM,7.64 µM,> 44.3 µM,> 100 µM,2.49 µM,17.6 µM,16.9,> 77.6 µM
COc1cc(/C=C2\CN(C(=O)CCN3CCC(=NO)CC3)C/C(=C\c3cc(OC)c(OC)c(OC)c3)C2=O)cc(OC)c1OC,5.82,1.27,0.467,> 100,0.579 µM,0.637,12.1,1.95,4.78,2.44,1.15 µM,0.419 µM,0.206 µM,0.301 µM,0.211 µM,0.239 µM,0.328 µM,0.535 µM,1.87,0.51 µM
CN(C)CCCc1c2ccccc2nc2ccc(Cl)cc12,28.3,29.8,25.4,67.7,30.1 µM,26.6,44.5,33.3,41.7,26.4,–,–,–,–,–,–,–,–,–,–
CCC[CH2][Sn]1([CH2]CCC)[O]C(=O)c2ccc(N)cc2[O]1,7.4,1.98,2.19,8.5,1.18 µM,3.08,2.43,1.5,2.92,2.11,2.62 µM,0.594 µM,0.965 µM,0.111 µM,0.144 µM,1.58 µM,0.254 µM,0.259 µM,1.34,0.548 µM
C[C@]12CC[C@@H](OC(=O)N(CCCl)N=O)C[C@@H]1CC[C@@H]1[C@@H]2CC[C@]2(C)C(=O)CC[C@@H]12,4.69,3.88,30.5,> 100,50.2 µM,44.1,> 57.7,18.9,14.3,23.9,0.73 µM,1.6 µM,7.25 µM,–,18.1 µM,10.6 µM,–,0.632 µM,3.43,3.99 µM
COc1ccc(NC(=O)n2nc(/C=C\c3ccc(O)c(OC)c3)cc2/C=C\c2ccc(O)c(OC)c2)cc1,97.9,44.3,42.9,16.9,38.6 µM,4.68,13.3,36.4,27.5,64.8,5.5 µM,16.2 µM,3.22 µM,2.86 µM,3.66 µM,1.25 µM,2.87 µM,3.21 µM,3.66,16.7 µM
CC(=O)Nc1ccc(/C=C2/NC(=S)N(/C=C3\C(=O)Oc4ccccc4C3=O)C2=O)cc1,> 100,> 100,> 100,> 100,> 100 µM,> 100,> 100,> 100,> 100,> 100,–,–,–,–,–,–,–,–,–,–
C[C@]12CC[C@H]3[C@@H](CC[C@]4(O)C[C@@H](O)CC[C@]34CO)[C@@]1(O)CC[C@@H]2C1=CC(=O)OC1,1.74,29.7,4.31,> 100,6.47 µM,9.45,0.726,3.25,6.72,12.7,–,–,–,–,–,–,–,–,–,–
COc1cc2ncnc3c2cc1OCCCCCN(C)Cc1ccc(Br)cc1N3,> 100,> 100,> 100,> 100,23.3 µM and > 10 µM,> 100,> 100,> 100,1.09,> 100,6.23 µM and 1.9 µM,5.68 µM and 4.67 µM,13.9 µM and 1.48 µM,3.98 µM and 2.93 µM,1.47 µM and 6.85 µM,8.63 µM and 7.39 µM,6.85 µM and 3.88 µM,29.5 µM and 4.01 µM,0.315,17.9 µM and > 10 µM

# From PubChem BioAssay (NCI)
